Measured values reported in patent publication US20080312164A1 (priority 2006, published 2008).
Where two headings read alike, the source gives them in different places. Marks after values point to notes of the source that are not given here.

Columns and labels:
[1] = system: Hep3B cells; test: Cell Titer-Glo cytotoxicity assay, Hep3B; format: cell-based; conditions: Homo sapiens, Cell Titer-Glo, 72 h, read-out: IC50
Source text: (§1) Five serial 1:2 dilutions were made with anhydrous DMSO at 100× the final concentration used in the assay.

[2] = system: NmuMG mouse mammary normal epithelial cells; test: Calcein AM cytotoxicity assay, NmuMG; format: cell-based; conditions: Epithelial cell, NmuMG, Calcein AM, 72 h, read-out: IC50
Source text: as §1

[3] = system: human cancer cell lines; test: Cytotoxicity across the panel of human cancer cell lines (average, high-throughput assays); format: cell-based
Source text: as §1

[4] = system: SK-OV-3 cells; test: Cell Titer-Glo cytotoxicity assay, SK-OV-3; format: cell-based; conditions: Homo sapiens; SK-OV-3, Cell Titer-Glo, 72 h; read-out: IC50
Source text: as §1

[5] = system: NCI-H460 cells; test: Cell Titer-Glo cytotoxicity assay, NCI-H460; format: cell-based, human; conditions: Homo sapiens; NCI-H460, Cell Titer-Glo, 72 h; read-out: IC50
Source text: as §1

[6] = system: HCT-116 cells; test: Cell Titer-Glo cytotoxicity assay, HCT-116; format: cell-based; conditions: Homo sapiens; HCT-116, Cell Titer-Glo, 72 h; read-out: IC50
Source text: as §1

[7] = system: Du145 cells; test: Cell Titer-Glo cytotoxicity assay, Du145; format: cell-based; conditions: Homo sapiens, DU-145; Du145, Cell Titer-Glo, 72 h; read-out: IC50
Source text: as §1

[8] = system: NmuMG mouse mammary normal epithelial cells; test: Cell Titer-Glo cytotoxicity assay, NmuMG; format: cell-based; conditions: Mus musculus, Epithelial cell; NmuMG, Cell Titer-Glo, 72 h; read-out: IC50
Source text: as §1

[9] = system: MCF7 cells; test: Cell Titer-Glo cytotoxicity assay, MCF7; format: cell-based, human; conditions: Homo sapiens; MCF7, Cell Titer-Glo, 72 h; read-out: IC50
Source text: as §1

[10] = system: SK-OV-3 cells; test: Calcein AM cytotoxicity assay, SK-OV-3; format: cell-based; conditions: Homo sapiens; SK-OV-3, Calcein AM, 72 h; read-out: IC50
Source text: as §1

[11] = system: HT-29 cells; test: MTT cytotoxicity assay, HT-29; format: cell-based; conditions: Homo sapiens; HT-29, MTT, 24 h; read-out: IC50
[12] = system: Du145 cells; test: Calcein AM cytotoxicity assay, Du145; format: cell-based; conditions: Homo sapiens, DU-145; Du145, Calcein AM, 72 h; read-out: IC50
Source text: as §1

[13] = system: NCI-H460 cells; test: Calcein AM cytotoxicity assay, NCI-H460; format: cell-based; conditions: Homo sapiens; NCI-H460, Calcein AM, 72 h; read-out: IC50
Source text: as §1

[14] = system: NCI/ADR RES cells; test: Calcein AM cytotoxicity assay, NCI/ADR-RES; format: cell-based; conditions: Homo sapiens, Calcein AM, 72 h, read-out: IC50
Source text: as §1

[15] = system: Hep3B cells; test: Calcein AM cytotoxicity assay, Hep3B; format: cell-based; conditions: Homo sapiens, Calcein AM, 72 h, read-out: IC50
Source text: as §1

[16] = system: SF-268 cells; test: Cell Titer-Glo cytotoxicity assay, SF-268; format: cell-based; conditions: Homo sapiens; SF-268, Cell Titer-Glo, 72 h; read-out: IC50
Source text: as §1

[17] = system: NmuMG Cell Line; test: Cytotoxicity in NmuMG cell line, summary table (assay not stated); format: cell-based; conditions: Mus musculus, assay not stated (mostly Cell Titer-Glo values; Calcein AM values for 20, 24, 39)
Source text: as §1

[18] = system: MCF7 cells; test: Calcein AM cytotoxicity assay, MCF7; format: cell-based; conditions: Homo sapiens; MCF7, Calcein AM, 72 h; read-out: IC50
Source text: as §1

[19] = system: HCT-116 cells; test: Calcein AM cytotoxicity assay, HCT-116; format: cell-based; conditions: Homo sapiens; HCT-116, Calcein AM, 72 h; read-out: IC50
Source text: as §1

[20] = system: SF-268 cells; test: Calcein AM cytotoxicity assay, SF-268; format: cell-based; conditions: Homo sapiens; SF-268, Calcein AM, 72 h; read-out: IC50
Source text: as §1

[21] = system: NCI/ADR RES cells; test: Cell Titer-Glo cytotoxicity assay, NCI/ADR-RES; format: cell-based, human; conditions: Homo sapiens; NCI/ADR-RES, Cell Titer-Glo, 72 h; read-out: IC50
Source text: as §1

[22] = average across eight human cancer cell lines, MTT (HT-29) values excluded, read-out: Cancerous Average IC50 / Average IC50 in Cancer Cell Lines
[23] = average across eight human cancer cell lines, MTT (HT-29) values excluded

S=C=NCCC1=CCCCC1 [Compound 39, 1-(2-isothiocyanatoethyl)cyclohex-1-ene]
IC50 [1]: 16.1 µM | IC50 [2]: 13 µM | IC50 [3, 22]: 18.3 µM | IC50 [4]: 24.1 µM | IC50 [5]: 36.4 µM | IC50 [6]: 16.4 µM | IC50 [7]: 18.6 µM | IC50 [8]: > 200 µM | IC50 [9]: 19.8 µM | IC50 [10]: 19.5 µM | IC50 [11]: 45.3 µM | IC50 [12]: 25.5 µM | IC50 [13]: 28.6 µM | IC50 [14]: 12.2 µM | IC50 [15]: 28.5 µM | IC50 [16]: 13.6 µM | IC50 [17]: 13 µM | IC50 [18]: 27.5 µM | IC50 [19]: 19 µM | IC50 [20]: 3.89 µM | IC50 [21]: 26.9 µM

CC(C)CN=C=S [Compound 15, 1-isothiocyanato-2-methylpropane]
IC50 [1]: > 30 µM | IC50 [2]: > 200 µM | IC50 ([3]; Homo sapiens, Calcein AM and CellTiter Glo, all cell lines (FIG. 3 legend), read-out: IC50, all cell lines): > 50 µM | Cancerous Average IC50 / Average IC50 in Cancer Cell Lines [3, 23]: >50.00^b μM | IC50 [3, 22]: > 50 µM | IC50 [4]: > 50 µM | IC50 [5]: > 50 µM | IC50 [6]: > 50 µM | IC50 [7]: > 50 µM | IC50 [8]: > 200 µM | IC50 [9]: > 50 µM | IC50 [10]: > 50 µM | IC50 [11]: > 50 µM | IC50 [12]: > 50 µM | IC50 [13]: > 50 µM | IC50 [14]: > 50 µM | IC50 [15]: 32.8 µM | IC50 [16]: > 50 µM | IC50 [17]: > 200 µM | IC50 [18]: > 50 µM | IC50 [19]: 27.6 µM | IC50 [20]: > 50 µM | IC50 [21]: > 50 µM

S=C=NCc1ccco1 [Compound 24, 2-(isothiocyanatomethyl)furan]
IC50 [1]: > 30 µM | IC50 [2]: 151 µM | IC50 [3, 22]: > 50 µM | IC50 [4]: > 50 µM | IC50 [5]: > 50 µM | IC50 [6]: > 50 µM | IC50 [7]: > 50 µM | IC50 [8]: > 200 µM | IC50 [9]: > 50 µM | IC50 [10]: > 30 µM | IC50 [11]: > 50 µM | IC50 [12]: > 50 µM | IC50 [13]: > 50 µM | IC50 [14]: 21.6 µM | IC50 [15]: > 30 µM | IC50 [16]: > 50 µM | IC50 [17]: 151 µM | IC50 [18]: > 50 µM | IC50 [19]: > 50 µM | IC50 [20]: > 50 µM | IC50 [21]: > 50 µM

S=C=Nc1ccccc1 [Compound 19, 1-isothiocyanatobenzene]
IC50 [1]: > 20 µM | IC50 [2]: > 200 µM | IC50 [3, 22]: >50.00 µM | IC50 [4]: > 50 µM | IC50 [5]: > 20 µM | IC50 [6]: > 20 µM | IC50 [7]: > 50 µM | IC50 [8]: > 200 µM | IC50 [9]: > 50 µM | IC50 [10]: > 50 µM | IC50 [11]: > 50 µM | IC50 [12]: > 50 µM | IC50 [13]: > 50 µM | IC50 [14]: > 20 µM | IC50 [15]: > 50 µM | IC50 [16]: > 50 µM | IC50 [17]: > 200 µM | IC50 [18]: > 50 µM | IC50 [19]: > 20 µM | IC50 [20]: 2.32 µM | IC50 [21]: > 20 µM

S=C=NCc1ccccc1-c1ccccc1 [Compound 33, 1-(isothiocyanatomethyl)-2-phenylbenzene]
IC50 [1]: 4.24 µM | IC50 [2]: < 12.5 µM | selectivity for cancer cells over NmuMG cells ([3]; IC50 in NmuMG versus average IC50 in cancer cell lines): 36.3 fold | further fold increase in potency from multiple phenyl rings ([3]; average IC50 compared with single-ring 23 and 38): ~2 fold | IC50 [3, 22]: 4.96 µM | IC50 [4]: 5.01 µM | IC50 [5]: 8.95 µM | IC50 [6]: 4.64 µM | IC50 [7]: 5.25 µM | IC50 [8]: 80.1 µM | IC50 [9]: 3.63 µM | IC50 [10]: 5.93 µM | IC50 [11]: 39.9 µM | IC50 [12]: 3.16 µM | IC50 [13]: 6.44 µM | IC50 [14]: 4.12 µM | IC50 [15]: 10.6 µM | IC50 [16]: 6.39 µM | IC50 [17]: 180 µM | IC50 [18]: 1.6 µM | IC50 [19]: 5.56 µM | IC50 [20]: 4.79 µM | IC50 [21]: 4.11 µM

S=C=Nc1ccc(Br)cc1 [Compound 20, 1-bromo-4-isothiocyanatobenzene]
IC50 [1]: > 50 µM | IC50 [2]: 183 µM | Cancerous Average IC50 / Average IC50 in Cancer Cell Lines [3, 23]: >50.00^e μM | IC50 [3, 22]: > 50 µM | IC50 [4]: 19.6 µM | IC50 [5]: 10.4 µM | IC50 [6]: 21.6 µM | IC50 [7]: 41.4 µM | IC50 [8]: 21.4 µM | IC50 [9]: 17.1 µM | IC50 [10]: > 50 µM | IC50 [11]: > 50 µM | IC50 [12]: > 50 µM | IC50 [13]: > 50 µM | IC50 [14]: > 50 µM | IC50 [15]: > 50 µM | IC50 [16]: 24.9 µM | IC50 [17]: 183 µM | IC50 [18]: 26.7 µM | IC50 [19]: > 50 µM | IC50 [20]: > 50 µM | IC50 [21]: 23.1 µM
